# Assay results from patent publication US10280159B2 (AbbVie Deutschland GmbH & Co. KG, priority 2015, dated 2019).
# Columns and labels:
# Assay type in all cases: cell-based
# human S1PR1 = target: T1, human S1PR1 (Homo sapiens, UniProt P21453); test: Intracellular Ca2+ release (FLIPR) agonist potency, S1P1; conditions: recombinant CHO-K1 cells expressing human S1PR1, aequorin, Gq/i5; Calcium 5 FLIPR; read-out: S1P1 EC50
# T1 construct: host or cells: CHO-K1
# Protocol: (§1) Agonistic activity was measured using the method described below.
# (§2) Intracellular Ca^2+ Release
# (§3) Agonist potency and intrinsic activity was assessed by measurement of intracellular Ca^2+ release. Recombinant CHO-K1 cells (Euroscreen, Brussels, Belgium) expressing human S1PR5, S1PR1, S1PR3 or S1PR4 receptors, aequorin, and GTP binding protein Gq/i5 were cultured using a medium containing nutrient mixture F-12 Ham (Sigma-Aldrich) with 10% FBS, and 100 μg/mL gentamicin and equilibrated at 5% CO2.
# (§4) Phospho-fingolimod was used as positive control. Antagonists were pre-incubated for 10 min with cells before addition of the agonist (phospho-fingolimod at EC80). Measurements were performed using a fluorometric imaging plate reader FLIPR®tetra (Molecular Devices). Agonist at the human S1P receptors were characterized by deducing EC50 (potency) values from a nonlinear fit to the measured fluorescence raw data after normalization to the reference agonist (phospho-fingolimod) curve.
# human S1PR4 = target: T2, human S1PR4 (Homo sapiens, UniProt O95977); test: Intracellular Ca2+ release (FLIPR) agonist potency, S1P4; conditions: recombinant CHO-K1 cells expressing human S1PR4, aequorin, Gq/i5; Calcium 5 FLIPR; read-out: S1P4 EC50
# T2 construct: host or cells: CHO-K1
# T2 sequence (O95977 1-384): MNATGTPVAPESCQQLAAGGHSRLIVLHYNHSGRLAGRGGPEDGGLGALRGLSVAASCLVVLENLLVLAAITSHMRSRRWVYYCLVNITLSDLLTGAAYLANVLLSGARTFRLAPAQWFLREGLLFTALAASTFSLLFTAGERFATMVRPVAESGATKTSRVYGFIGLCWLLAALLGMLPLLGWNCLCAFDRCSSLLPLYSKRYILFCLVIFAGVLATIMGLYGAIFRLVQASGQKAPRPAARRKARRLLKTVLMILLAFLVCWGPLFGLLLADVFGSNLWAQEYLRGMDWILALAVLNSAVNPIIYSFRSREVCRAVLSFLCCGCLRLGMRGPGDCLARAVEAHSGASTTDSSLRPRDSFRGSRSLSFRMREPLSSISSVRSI
# Protocol: as §1, §2, §3, §4
# human S1PR5 = target: T3, human S1PR5 (Homo sapiens, UniProt Q9H228); test: Intracellular Ca2+ release (FLIPR) agonist potency, S1P5; conditions: recombinant CHO-K1 cells expressing human S1PR5, aequorin, Gq/i5; Calcium 5 FLIPR; read-out: S1P5 EC50 range
# T3 construct: host or cells: CHO-K1
# Protocol: as §1, §2, §3, §4
# T1 sequence (P21453 whole entry): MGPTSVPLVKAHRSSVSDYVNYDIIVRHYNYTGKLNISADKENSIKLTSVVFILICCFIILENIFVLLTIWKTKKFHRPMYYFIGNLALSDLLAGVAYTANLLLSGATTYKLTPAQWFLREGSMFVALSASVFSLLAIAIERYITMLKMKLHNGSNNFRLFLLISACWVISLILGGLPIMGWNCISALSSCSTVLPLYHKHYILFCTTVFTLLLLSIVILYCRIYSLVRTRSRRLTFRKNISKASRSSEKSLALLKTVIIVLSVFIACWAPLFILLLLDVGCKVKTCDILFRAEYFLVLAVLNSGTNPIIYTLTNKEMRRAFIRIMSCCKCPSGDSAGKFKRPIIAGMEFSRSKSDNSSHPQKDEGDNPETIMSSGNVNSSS
# T3 sequence (Q9H228 whole entry): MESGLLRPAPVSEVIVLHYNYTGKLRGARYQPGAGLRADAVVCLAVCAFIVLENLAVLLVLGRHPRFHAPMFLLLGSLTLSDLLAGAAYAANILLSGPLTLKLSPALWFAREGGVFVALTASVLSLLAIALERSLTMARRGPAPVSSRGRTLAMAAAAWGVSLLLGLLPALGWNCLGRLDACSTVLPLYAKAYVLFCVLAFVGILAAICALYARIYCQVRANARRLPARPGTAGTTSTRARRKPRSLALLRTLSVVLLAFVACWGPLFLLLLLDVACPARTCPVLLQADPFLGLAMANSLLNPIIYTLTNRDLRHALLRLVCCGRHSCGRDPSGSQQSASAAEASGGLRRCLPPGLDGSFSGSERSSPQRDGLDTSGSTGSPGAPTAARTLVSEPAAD
SMILES,EC50 (human S1PR1) [nM],EC50 (human S1PR4) [nM],EC50 (human S1PR5) [nM]
"O=C(O)C1CN(C2COc3cc(C#Cc4cccc(F)c4F)ccc3C2)C1 (stereo not drawn) [Compound 26, 1-(7-((2,3-difluorophenyl)ethynyl)chroman-3-yl)azetidine-3-carboxylic acid]",> 1000,> 1000,10 to 100
"O=C(O)C12CC1CCN2C1CCc2cc(OCc3c(Cl)cccc3Cl)ccc2C1 (stereo not drawn) [Compound 36, 2-(6-((2,6-dichlorobenzyl)oxy)-1,2,3,4-tetrahydronaphthalen-2-yl)-2-azabicyclo[3.1.0]hexane-1-carboxylic acid]",> 1000,> 1000,100 to 1000
"CC(C)C(NC1CCc2cc(OCc3c(Cl)cccc3Cl)ccc2C1)C(=O)O (stereo not drawn) [Compound 37, 2-((6-((2,6-dichlorobenzyl)oxy)-1,2,3,4-tetrahydronaphthalen-2-yl)amino)-3-methylbutanoic acid]",> 1000,> 1000,100 to 1000
"O=C(O)C1CN(C2COc3cc(C#CC4CCCCC4)ccc3C2)C1 (stereo not drawn) [Compound 39, 1-(7-(cyclohexylethynyl)chroman-3-yl)azetidine-3-carboxylic acid]",> 1000,> 1000,100 to 1000
"CCOc1ccc(C#Cc2ccc3c(c2)OCC(N2CC(C(=O)O)C2)C3)cc1 (stereo not drawn) [Compound 45, 1-(7-((4-ethoxyphenyl)ethynyl)chroman-3-yl)azetidine-3-carboxylic acid]",< 1000,> 1000,100 to 1000
"O=C(O)C1CN(C2COc3cc(OCc4ccc(Cl)cc4)ccc3C2)C1 (stereo not drawn) [Compound 46, 1-(7-((4-chlorobenzyl)oxy)chroman-3-yl)azetidine-3-carboxylic acid]",> 1000,> 1000,1000 to 10000
"O=C(O)C1(CNC2COc3cc(OCc4c(Cl)cccc4Cl)ccc3C2)CC1 (stereo not drawn) [Compound 49, 1-(((7-((2,6-dichlorobenzyl)oxy)chroman-3-yl)amino)methyl)cyclopropanecarboxylic acid]",> 1000,< 1000,100 to 1000
"O=C(O)C1CN(C2COc3cc(OCc4cc(Cl)ccc4Cl)ccc3C2)C1 (stereo not drawn) [Compound 52, 1-(7-((2,5-dichlorobenzyl)oxy)chroman-3-yl)azetidine-3-carboxylic acid]",> 1000,> 1000,1000 to 10000
"Cc1cccc(F)c1COc1ccc2c(c1)OCC(N1CC(C(=O)O)C1)C2 (stereo not drawn) [Compound 53, 1-(7-((2-fluoro-6-methylbenzyl)oxy)chroman-3-yl)azetidine-3-carboxylic acid]",> 1000,> 1000,100 to 1000
"O=C(O)C1CN(C2COc3cc(OCc4ccc(C(F)(F)F)cc4)ccc3C2)C1 (stereo not drawn) [Compound 57, 1-(7-((4-(trifluoromethyl)benzyl)oxy)chroman-3-yl)azetidine-3-carboxylic acid]",> 1000,> 1000,1000 to 10000
"Cc1cccc(COc2ccc3c(c2)OCC(N2CC(C(=O)O)C2)C3)c1 (stereo not drawn) [Compound 58, 1-(7-((3-methylbenzyl)oxy)chroman-3-yl)azetidine-3-carboxylic acid]",> 1000,> 1000,1000 to 10000
"O=C(O)C1CN(C2COc3cc(OCc4c(F)cccc4Cl)ccc3C2)C1 (stereo not drawn) [Compound 61, 1-(7-((2-chloro-6-fluorobenzyl)oxy)chroman-3-yl)azetidine-3-carboxylic acid]",> 1000,> 1000,100 to 1000
"CCc1cccc(Cl)c1COc1ccc2c(c1)CCC(NCC1(C(=O)O)CC1)C2 (stereo not drawn) [Compound 76, 1-(((6-((2-chloro-6-ethylbenzyl)oxy)-1,2,3,4-tetrahydronaphthalen-2-yl)amino)methyl)cyclopropanecarboxylic acid]",< 1000,< 1000,< 10
"Cc1cc(COc2ccc3c(c2)OCC(N2CC(C(=O)O)C2)C3)ccc1F (stereo not drawn) [Compound 84, 1-[7-[(4-fluoro-3-methyl-phenyl)methoxy]chroman-3-yl]azetidine-3-carboxylic acid]",> 1000,> 1000,1000 to 10000
"O=C(O)C1CN(C2COc3cc(OCc4ccc(F)c(C(F)(F)F)c4)ccc3C2)C1 (stereo not drawn) [Compound 85, 1-[7-[[4-fluoro-3-(trifluoromethyl)phenyl]methoxy]chroman-3-yl]azetidine-3-carboxylic acid]",> 1000,> 1000,1000 to 10000
"Cc1cc(F)cc(COc2ccc3c(c2)OCC(N2CC(C(=O)O)C2)C3)c1 (stereo not drawn) [Compound 87, 1-[7-[(3-fluoro-5-methyl-phenyl)methoxy]chroman-3-yl]azetidine-3-carboxylic acid]",> 1000,> 1000,1000 to 10000
"Cc1ccc(COc2ccc3c(c2)OCC(N2CC(C(=O)O)C2)C3)c(F)c1 (stereo not drawn) [Compound 88, 1-[7-[(2-fluoro-4-methyl-phenyl)methoxy]chroman-3-yl]azetidine-3-carboxylic acid]",> 1000,> 1000,1000 to 10000
"O=C(O)C1CN(C2COc3cc(OCc4cc(F)cc(C(F)(F)F)c4)ccc3C2)C1 (stereo not drawn) [Compound 90, 1-[7-[[3-fluoro-5-(trifluoromethyl)phenyl]methoxy]chroman-3-yl]azetidine-3-carboxylic acid]",> 1000,< 1000,10 to 100
"O=C(O)C1CN(C2COc3cc(OCc4cc(F)ccc4C(F)(F)F)ccc3C2)C1 (stereo not drawn) [Compound 91, 1-[7-[[5-fluoro-2-(trifluoromethyl)phenyl]methoxy]chroman-3-yl]azetidine-3-carboxylic acid]",> 1000,> 1000,100 to 1000
"COc1cc(COc2ccc3c(c2)OCC(N2CC(C(=O)O)C2)C3)ccc1F (stereo not drawn) [Compound 92, 1-[7-[(4-fluoro-3-methoxy-phenyl)methoxy]chroman-3-yl]azetidine-3-carboxylic acid]",> 1000,> 1000,1000 to 10000
"O=C(O)C1CN(C2COc3cc(OCc4cccc(C(F)(F)F)c4F)ccc3C2)C1 (stereo not drawn) [Compound 94, 1-[7-[[2-fluoro-3-(trifluoromethyl)phenyl]methoxy]chroman-3-yl]azetidine-3-carboxylic acid]",> 1000,> 1000,1000 to 10000

# Continued, values first:
EC50 (human S1PR1) [nM],EC50 (human S1PR4) [nM],EC50 (human S1PR5) [nM],SMILES
> 1000,< 1000,100 to 1000,"Cc1cccc(C#Cc2ccc3c(c2)OCC(N2CC(C(=O)O)C2)C3)c1 (stereo not drawn) [Compound 43, 1-(7-((3-(methyl)phenyl)ethynyl)chroman-3-yl)azetidine-3-carboxylic acid]"
> 1000,< 1000,100 to 1000,"O=C(O)C1CN(C2COc3cc(OCc4cccc(C(F)(F)F)c4)ccc3C2)C1 (stereo not drawn) [Compound 59, 1-(7-((3-(trifluoromethyl)benzyl)oxy)chroman-3-yl)azetidine-3-carboxylic acid]"
> 1000,> 1000,10 to 100,"O=C(O)C1CN(C2COc3cc(OCc4ccccc4C(F)(F)F)ccc3C2)C1 (stereo not drawn) [Compound 62, 1-(7-((2-(trifluoromethyl)benzyl)oxy)chroman-3-yl)azetidine-3-carboxylic acid]"
> 1000,> 1000,100 to 1000,"O=C(O)C1CN(C2COc3cc(OCc4ccccc4Cl)ccc3C2)C1 (stereo not drawn) [Compound 63, 1-(7-((2-chlorobenzyl)oxy)chroman-3-yl)azetidine-3-carboxylic acid]"
> 1000,> 1000,100 to 1000,"Cc1cccc(Cl)c1COc1ccc2c(c1)OCC(N1CC(C(=O)O)C1)C2 (stereo not drawn) [Compound 71, 1-(7-((2-chloro-6-methylbenzyl)oxy)chroman-3-yl)azetidine-3-carboxylic acid]"
> 1000,< 1000,< 10,"CCc1cccc(F)c1COc1ccc2c(c1)OCC(N(C)CC(=O)O)C2 (stereo not drawn) [Compound 72, 2-((7-((2-ethyl-6-fluorobenzyl)oxy)chroman-3-yl)(methyl)amino)acetic acid]"
> 1000,> 1000,1000 to 10000,"COc1cccc(COc2ccc3c(c2)OCC(N2CC(C(=O)O)C2)C3)c1F (stereo not drawn) [Compound 86, 1-[7-[(2-fluoro-3-methoxy-phenyl)methoxy]chroman-3-yl]azetidine-3-carboxylic acid]"
> 1000,> 1000,1000 to 10000,"N#Cc1ccc(COc2ccc3c(c2)OCC(N2CC(C(=O)O)C2)C3)c(F)c1 (stereo not drawn) [Compound 89, 1-[7-[(4-cyano-2-fluoro-phenyl)methoxy]chroman-3-yl]azetidine-3-carboxylic acid]"
> 1000,> 1000,1000 to 10000,"O=C(O)C1CN(C2COc3cc(OCCOc4ccc(F)cc4)ccc3C2)C1 (stereo not drawn) [Compound 93, 1-[7-[2-(4-fluorophenoxy)ethoxy]chroman-3-yl]azetidine-3-carboxylic acid]"
